Experimental data taken from patent US5990096A (priority 1992, dated 1999).

How the values were obtained:
[1] = Intratumour injection study: radioactivity remaining in normal skin; format: in vivo, Fisher 344 rat; details: injection into normal skin
Description: (§1) 1. These drugs were administrated by intratumor injection. (right frank)
At the same time, injection into normal skin (left frank) was carried out similarly.
(§2) Group A:H-5-FU 5 mg/kg+saline/0.3 ml (i.t.)
(§3) B:H-5-FU 5 mg/kg+HA 15 mg/kg/0.3 ml (s.c.)
(§4) 3H-FU without or with HA was injected as a single dose (0.3 ml) into the center of the tumor (on the right frank) with a 30 gause needle. At the same time, injection into normal skin (on the left frank) was carried out similarly.
(§5) The tumor and skin was then removed at different times (1 h,6 hr) for counting radioactivity of the remaining content in the tissue.

Fisher Bladder Carcinoma = assay: Intratumour injection study: radioactivity remaining in tumor tissue; format: in vivo, Fisher 344 rat; details: intratumor injection
Description: as §1, §2, §3, §4, §5

[2] = in vivo

Row | Compound | Radioactivity clearance from normal tissue (skin) [1] | Radioactivity retention in tumor tissue (Fisher Bladder Carcinoma) | Side effects [2]
1 | O=c1[nH]cc(F)c(=O)[nH]1 [Formulation 3H-5FU, 5-Fluoracil] | immediately disappeared | immediately disappeared | 
2 | O=C(O)Cc1ccccc1Nc1c(Cl)cccc1Cl [Oral diclofenac acid] |  |  | gastritis
